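Exposure lasted 48 hours, with cells grown in 96-well plates and compounds tested at five concentrations. GI50 marks 50% less growth.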 Calls of active or inactive are those of the source. No stated cut-off is given here; in the data, active = GI50 up to about 1.1 µM and inactive = higher.
Tests used:
Assay in all cases: NCI-60 cell line screen, 48 h
RXF 393 = test system: RXF 393
HCT-116 = test system: HCT-116
ACHN = test system: ACHN
A549 = test system: A549
KM12 = test system: KM12
SNB-75 = test system: SNB-75
SF-295 = test system: SF-295
SF-268 = test system: SF-268
786-0 = test system: 786-0
OVCAR-4 = test system: OVCAR-4
Malme-3M = test system: Malme-3M
OVCAR-5 = test system: OVCAR-5
OVCAR-3 = test system: OVCAR-3
CAKI-1 = test system: CAKI-1
HT-29 = test system: HT-29
SK-MEL-5 = test system: SK-MEL-5
UACC-62 = test system: UACC-62
MDA-MB-435 = test system: MDA-MB-435

Measured: GI50

COc1ccc2c(c1)[n+]([O-])c(-c1ccc(Br)cc1)c(N)[n+]2[O-]
inactive: RXF 393 34.6 µM | HCT-116 30.6 µM | ACHN 47.8 µM | A549 32.1 µM | KM12 58.5 µM | SNB-75 63.1 µM | SF-295 96.2 µM | SF-268 39.4 µM | 786-0 78 µM | OVCAR-4 35.6 µM | Malme-3M 25.2 µM | OVCAR-5 60 µM | OVCAR-3 35.4 µM | CAKI-1 51.5 µM | HT-29 44.4 µM | SK-MEL-5 17.7 µM

Cc1ccccc1NC(=O)Cc1nc2ccccc2s1
inactive: RXF 393 18.9 µM | HCT-116 16.5 µM | UACC-62 19.4 µM | ACHN 15.4 µM | A549 16.6 µM | KM12 16.7 µM | SNB-75 61 µM | SF-295 15.8 µM | SF-268 17 µM | 786-0 17.7 µM | OVCAR-4 17.3 µM | Malme-3M 15.8 µM | OVCAR-5 21.9 µM | OVCAR-3 18 µM | CAKI-1 17.7 µM | HT-29 19.6 µM | SK-MEL-5 51.2 µM

Oc1ccc(Cl)cc1/N=N\c1c(O)ccc2ccccc12
inactive: MDA-MB-435 > 100 µM | RXF 393 > 100 µM | HCT-116 > 100 µM | UACC-62 > 100 µM | ACHN > 100 µM | A549 > 100 µM | KM12 > 100 µM | SNB-75 > 100 µM | SF-295 > 100 µM | SF-268 > 100 µM | 786-0 > 100 µM | OVCAR-4 > 100 µM | Malme-3M 22.2 µM | OVCAR-5 > 100 µM | OVCAR-3 > 100 µM | CAKI-1 > 100 µM | HT-29 > 100 µM | SK-MEL-5 92.7 µM

CC1CC(c2ccccc2)=Nc2ccccc2S1(=O)=O (stereo not given)
inactive: RXF 393 15.3 µM | HCT-116 1.75 µM | UACC-62 20.5 µM | ACHN 16 µM | A549 23.6 µM | KM12 16.3 µM | SNB-75 19.2 µM | SF-295 20.2 µM | SF-268 16.9 µM | 786-0 17.2 µM | OVCAR-4 19 µM | Malme-3M 17.9 µM | OVCAR-5 18.6 µM | OVCAR-3 18.5 µM | CAKI-1 22 µM | SK-MEL-5 17.9 µM

O=C(/C=C1/NC(=O)CS1)Nc1ccccc1
inactive: RXF 393 > 100 µM | HCT-116 > 100 µM | UACC-62 > 100 µM | A549 > 100 µM | KM12 > 100 µM | SNB-75 50 µM | SF-295 > 100 µM | SF-268 > 100 µM | 786-0 > 100 µM | OVCAR-4 > 100 µM | Malme-3M 30.8 µM | OVCAR-5 > 100 µM | OVCAR-3 > 100 µM | CAKI-1 > 100 µM | HT-29 > 100 µM | SK-MEL-5 > 100 µM

Cc1cc2c(c(C(=O)O)c1C)-c1cccc(Cl)c1C2=O
inactive: RXF 393 > 100 µM | UACC-62 > 100 µM | ACHN > 100 µM | A549 > 100 µM | KM12 > 100 µM | SNB-75 > 100 µM | SF-295 > 100 µM | SF-268 > 100 µM | 786-0 > 100 µM | OVCAR-4 > 100 µM | Malme-3M > 100 µM | OVCAR-5 > 100 µM | OVCAR-3 > 100 µM | CAKI-1 > 100 µM | HT-29 > 100 µM | SK-MEL-5 > 100 µM

C=CCN(N=O)C(=O)N(CCCC(NC(C)=O)C(=O)NCc1ccccc1)Cc1ccccc1 (stereo not given)
inactive: RXF 393 42.2 µM | UACC-62 49.8 µM | ACHN 54.7 µM | A549 61.9 µM | KM12 42.4 µM | SNB-75 39 µM | SF-295 38.5 µM | SF-268 62.2 µM | 786-0 80.5 µM | OVCAR-4 36.1 µM | Malme-3M 98.4 µM | OVCAR-5 > 100 µM | OVCAR-3 31 µM | CAKI-1 30.5 µM | HT-29 24.2 µM | SK-MEL-5 31.1 µM

Cc1ccc(S(=O)(=O)SCc2ccccc2)cc1
inactive: RXF 393 28.4 µM | HCT-116 7.6 µM | UACC-62 29.4 µM | ACHN 32.8 µM | A549 35.8 µM | KM12 25.7 µM | SNB-75 > 49.3 µM | SF-295 30.3 µM | SF-268 34 µM | 786-0 17.3 µM | OVCAR-4 15.5 µM | Malme-3M 24.4 µM | OVCAR-5 33.2 µM | OVCAR-3 20.8 µM | CAKI-1 34.9 µM | HT-29 22.9 µM | SK-MEL-5 25.6 µM

CC1(C)OC(COCCOCCCCCO)C(COCCOCCCCCO)O1 (stereo not given)
inactive: RXF 393 > 100 µM | HCT-116 > 100 µM | UACC-62 82.6 µM | ACHN > 100 µM | A549 > 100 µM | KM12 > 100 µM | SNB-75 > 100 µM | SF-295 > 100 µM | SF-268 > 100 µM | 786-0 > 100 µM | OVCAR-4 > 100 µM | Malme-3M > 100 µM | OVCAR-5 > 100 µM | OVCAR-3 > 100 µM | CAKI-1 > 100 µM | HT-29 > 100 µM | SK-MEL-5 > 100 µM

COC(=O)/C(=N/NC(=O)C[N+](C)(C)C)C(C(=O)OC)C(=O)C(=O)Nc1ccc(F)cc1 (stereo not given)
inactive: RXF 393 > 100 µM | HCT-116 > 100 µM | UACC-62 > 100 µM | ACHN > 100 µM | A549 > 100 µM | KM12 > 100 µM | SNB-75 > 100 µM | SF-295 > 100 µM | SF-268 > 100 µM | 786-0 > 100 µM | OVCAR-4 > 100 µM | Malme-3M > 100 µM | OVCAR-5 > 100 µM | OVCAR-3 > 100 µM | CAKI-1 > 100 µM | HT-29 > 100 µM | SK-MEL-5 > 100 µM

C[C@]12CCC[C@H](OC=O)C1(O)C[C@H](C(=O)O)CC2 (stereo not given in full)
inactive: RXF 393 > 100 µM | HCT-116 > 100 µM | UACC-62 16.5 µM | ACHN > 100 µM | A549 > 100 µM | KM12 > 100 µM | SNB-75 > 100 µM | SF-295 > 100 µM | SF-268 > 100 µM | 786-0 > 100 µM | OVCAR-4 > 100 µM | Malme-3M > 100 µM | OVCAR-5 > 100 µM | OVCAR-3 > 100 µM | CAKI-1 > 100 µM | HT-29 > 100 µM | SK-MEL-5 > 100 µM

COC(=O)/C(=N\NC(N)=O)C(C(=O)C=C(C)C)C(=O)C(=O)Nc1ccc(Cl)c(Cl)c1 (stereo not given)
inactive: RXF 393 > 100 µM | HCT-116 > 100 µM | UACC-62 > 100 µM | ACHN > 100 µM | A549 > 100 µM | KM12 > 100 µM | SNB-75 > 100 µM | SF-295 > 100 µM | SF-268 > 100 µM | 786-0 > 100 µM | OVCAR-4 > 100 µM | Malme-3M > 100 µM | OVCAR-5 > 100 µM | OVCAR-3 > 100 µM | CAKI-1 > 100 µM | HT-29 > 100 µM | SK-MEL-5 > 100 µM
